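Interpolation was linear, between the two tested concentrations surrounding the appropriate level; five concentrations were tested over 48 hours in 96-well plates. TGI marks complete inhibition of growth.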
Tests used:
Test in all cases: growth of human tumour cells (NCI), 48 h
A549 NSCLC = system: A549 NSCLC
CCRF-CEM leukemia = system: CCRF-CEM leukemia
HL-60(TB) leukemia = system: HL-60(TB) leukemia
OVCAR-8 ovarian = system: OVCAR-8 ovarian
SK-MEL-2 melanoma = system: SK-MEL-2 melanoma
UACC-257 melanoma = system: UACC-257 melanoma
MCF7 breast = system: MCF7 breast
MDA-MB-435 = system: MDA-MB-435
NCI-H226 lung = system: NCI-H226 lung
OVCAR-4 ovarian = system: OVCAR-4 ovarian

SMILES	TGI (A549 NSCLC) [µM]	TGI (CCRF-CEM leukemia) [µM]	TGI (HL-60(TB) leukemia) [µM]	TGI (OVCAR-8 ovarian) [µM]	TGI (SK-MEL-2 melanoma) [µM]	TGI (UACC-257 melanoma) [µM]	TGI (MCF7 breast) [µM]	TGI (MDA-MB-435) [µM]	TGI (NCI-H226 lung) [µM]	TGI (OVCAR-4 ovarian) [µM]
COc1ccc(N2C(=O)C(N3C(=O)C=CC3=O)C2C=O)cc1 (stereo not given)	> 100	> 100	> 100	> 100	> 100	> 100				
C/C(=C\c1ccccc1)C(=O)NCc1ccc(C(=O)NCCc2c[nH]c3ccccc23)cc1	> 100	> 100		> 100	> 100	78.2	> 100	> 100	> 100	> 100
O=C1OC(c2ccccc2)=N/C1=C/N1CCCC1C(=O)O (stereo not given)	> 100	> 100	> 100	> 100	> 100	> 100			> 100	> 100
S=C(Nc1ccc2c(c1)Cc1ccccc1-2)Nc1ccc2c(c1)Cc1ccccc1-2	> 100	27.2	22.4	> 100		> 100	> 100	> 100	> 100	> 100
C[n+]1c(-c2ccc(/C=N/Nc3ccnc(N/N=C/c4ccc(-c5cn6ccccc6[n+]5C)cc4)n3)cc2)cn2ccccc21	> 100		65.7	> 100		> 100				> 100
CC(=O)[C@H]1CCC2[C@@H]3CC=C4C(O)C(OS(=O)(=O)O)CC[C@]4(C)C3CC[C@@]21C (stereo not given in full)	> 100	> 100	> 31.6	> 100	> 100	> 100	> 100		> 100	> 100
CC1(C)Oc2ccc3c(=O)c4ccccc4oc3c2C1C(=O)O (stereo not given)	> 100	> 100		> 100	> 100	> 100	> 100	> 100	> 100	> 100
CCCCCCCCCCCCCCCCNc1ccn(C2CC(OP(=O)(O)OCC3OC(n4cc(CC)c(=O)[nH]c4=O)CC3O)C(CO)O2)c(=O)n1 (stereo not given)	55.2		20.2	43.6	39.1	97.4	> 100	> 100	> 100	> 100
CC1(C)CC2(C)OC(=N)C1(C#N)C2(C#N)C#N (stereo not given)	60		15.6	46.8	31.7	19.9	24.8	33.3		
O=C(NCc1cccnc1)C(=O)NCc1cccnc1	> 100		64.7	> 100	> 100	> 100	> 100	> 100	> 100	> 100
c1ccc(COc2cccc3cccnc23)cc1	> 100	> 100	57.5	> 100		> 100			> 100	> 100
O=C(C=P(c1ccccc1)(c1ccccc1)c1ccccc1)c1ccc(-c2ccc(F)cc2F)cc1	11.4	7.06	5.13			8.57	7.95	5.79	7.16	9.96
O=C(/C=C/c1ccccc1)CCc1c(O)c2ccccc2oc1=O	> 100	> 100		> 100	> 100	> 100	> 100	> 100	> 100	> 100
O=C(NCc1ccccc1)c1c(O)c2ccccc2[nH]c1=O	> 100	> 100	> 100	> 100		> 100	> 100	> 100	> 100	> 100
CSC1NNC2(C(=O)N1)c1ccccc1-c1ccccc12 (stereo not given)	> 10	> 10	> 10	> 10		> 10	> 10	> 10	> 10	> 10
C=C1CC(OC)(C(O)C(=O)N[C@H]2OCO[C@H]3C2O[C@H](C[C@H](O)COC)C(C)(C)C3OC)O[C@H](C)[C@@H]1C (stereo not given in full)	> 0.00772	> 0.00772		> 0.00772		> 0.00772	> 0.00772		> 0.00772	> 0.00772
Cc1nnc(CC#N)n1NC(=O)CC#N	> 100	> 100	> 100	> 100	> 100	> 100	> 100	> 100		
COC(=O)/C=C\C(C#N)(C#N)N=Cc1ccsc1	33	0.93		13.3	30.7	9.35	5.05	12.5	45.3	32.5
CC1(C)O[C@@H](CP(c2cccc3ccccc23)c2cccc3ccccc23)[C@H](CP(c2cccc3ccccc23)c2cccc3ccccc23)O1	> 100	> 100		> 100	> 100	> 100	> 100	> 100	> 100	> 100
COc1cc(C2(C)SCCCS2)c(I)c(OC)c1OC	> 100	> 100	> 100	> 100	> 100	> 100			> 100	> 100
Oc1ccc2ccccc2c1OCc1nnc(CCCCCCCCc2nnc(COc3c(O)ccc4ccccc34)o2)o1	> 100				> 100	> 100	> 100	> 100	> 100	> 100
O=c1c(-c2ccc(O)cc2)coc2cc(O)cc(O)c12	> 100		> 100	> 100			> 100	> 100	> 100	> 100
COC(=O)C1[C@H](C(=O)OC)C1(Br)CBr (stereo not given in full)	> 100		> 100	> 100	> 100	> 100	> 100	> 100	> 100	> 100
CC1(O)C(=O)OC2CC([C@]3(O)CCC4[C@@H]5C[C@H]6O[C@]67[C@@H](O)C=CC(=O)[C@]7(C)C5CC[C@@]43C)C1(C)C2 (stereo not given in full)	> 100	9.54	19.9	> 100	28.6	26.6	> 33	33.2		26.5
